ChEMBL document CHEMBL5036306 (J Med Chem, 2021)
Active and inactive are the calls of the source. The rule behind the calls is not given here.

Tests used:
[1] = molecular target: T1, Protein deacetylase HDAC6 (Homo sapiens, UniProt Q9UBN7); experiment: Inhibition of recombinant HDAC6 (unknown origin) using Boc-Lys(acetyl)-AMC as substrate preincubated for 1 hr followed by substrate addition and measured after 2 hrs by fluorescence based assay
T1 sequence (Q9UBN7 whole entry): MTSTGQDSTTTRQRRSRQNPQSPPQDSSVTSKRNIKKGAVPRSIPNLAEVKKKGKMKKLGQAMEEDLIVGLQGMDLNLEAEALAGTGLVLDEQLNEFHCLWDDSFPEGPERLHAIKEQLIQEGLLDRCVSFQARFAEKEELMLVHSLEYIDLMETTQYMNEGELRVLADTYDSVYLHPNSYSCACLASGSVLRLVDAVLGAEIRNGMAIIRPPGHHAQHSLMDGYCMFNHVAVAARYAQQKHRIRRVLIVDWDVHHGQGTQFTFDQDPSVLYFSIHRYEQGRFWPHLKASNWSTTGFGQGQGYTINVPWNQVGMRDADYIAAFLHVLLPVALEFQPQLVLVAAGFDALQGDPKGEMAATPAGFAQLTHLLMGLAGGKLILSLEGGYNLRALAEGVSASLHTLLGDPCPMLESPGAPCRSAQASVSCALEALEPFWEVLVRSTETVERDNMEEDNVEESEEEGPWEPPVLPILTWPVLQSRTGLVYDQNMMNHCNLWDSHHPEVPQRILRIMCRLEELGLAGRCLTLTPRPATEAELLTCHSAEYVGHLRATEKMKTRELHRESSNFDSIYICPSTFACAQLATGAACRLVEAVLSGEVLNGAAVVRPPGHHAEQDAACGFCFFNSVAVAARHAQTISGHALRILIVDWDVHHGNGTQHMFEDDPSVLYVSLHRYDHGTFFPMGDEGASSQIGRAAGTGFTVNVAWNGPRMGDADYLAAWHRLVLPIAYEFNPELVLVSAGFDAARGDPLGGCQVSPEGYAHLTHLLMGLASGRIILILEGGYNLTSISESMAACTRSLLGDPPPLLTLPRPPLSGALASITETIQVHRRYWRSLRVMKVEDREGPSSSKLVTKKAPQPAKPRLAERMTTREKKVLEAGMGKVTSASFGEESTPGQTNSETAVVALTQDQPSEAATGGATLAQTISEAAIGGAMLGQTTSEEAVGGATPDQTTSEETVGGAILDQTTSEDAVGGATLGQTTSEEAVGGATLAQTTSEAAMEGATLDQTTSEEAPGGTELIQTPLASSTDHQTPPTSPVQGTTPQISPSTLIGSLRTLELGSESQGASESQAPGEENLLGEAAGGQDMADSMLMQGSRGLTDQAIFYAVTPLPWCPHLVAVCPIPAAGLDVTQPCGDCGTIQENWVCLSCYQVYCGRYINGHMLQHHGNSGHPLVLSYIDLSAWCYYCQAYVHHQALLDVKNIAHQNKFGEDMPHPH

Histone deacetylase 1 = Histone deacetylase 1 (Homo sapiens, UniProt Q13547); experiment: Inhibition of recombinant HDAC1 (unknown origin) using Boc-Lys(Ac)-AMC as substrate pre-incubated for 1 hr followed by substrate addition and measured after 2 hrs by fluorescence based assay
Histone deacetylase 9 = Histone deacetylase 9 (Homo sapiens, UniProt Q9UKV0); experiment: Inhibition of recombinant HDAC9 (unknown origin) using Boc-Lys(trifluoroacetyl)-AMC as substrate pre-incubated for 1 hr followed by substrate addition and measured after 2 hrs by fluorescence based assay
Homo sapiens = species on record: Homo sapiens; experiment: Selectivity ratio of IC50 for recombinant HDAC4 (unknown origin) to IC50 for recombinant HDAC6 (unknown origin)
[2] = molecular target: T2, Protein deacetylase HDAC6 (Mus musculus) (UniProt Q9Z2V5); experiment: Inhibition of HDAC6 in mouse HT-22 cells assessed as increase in acetylated tubulin level at 20 to 500 nM after 24 hrs by Western blotting analysis; assay type: cell-based; settings: dose 20-500 nM
T2 sequence (whole entry): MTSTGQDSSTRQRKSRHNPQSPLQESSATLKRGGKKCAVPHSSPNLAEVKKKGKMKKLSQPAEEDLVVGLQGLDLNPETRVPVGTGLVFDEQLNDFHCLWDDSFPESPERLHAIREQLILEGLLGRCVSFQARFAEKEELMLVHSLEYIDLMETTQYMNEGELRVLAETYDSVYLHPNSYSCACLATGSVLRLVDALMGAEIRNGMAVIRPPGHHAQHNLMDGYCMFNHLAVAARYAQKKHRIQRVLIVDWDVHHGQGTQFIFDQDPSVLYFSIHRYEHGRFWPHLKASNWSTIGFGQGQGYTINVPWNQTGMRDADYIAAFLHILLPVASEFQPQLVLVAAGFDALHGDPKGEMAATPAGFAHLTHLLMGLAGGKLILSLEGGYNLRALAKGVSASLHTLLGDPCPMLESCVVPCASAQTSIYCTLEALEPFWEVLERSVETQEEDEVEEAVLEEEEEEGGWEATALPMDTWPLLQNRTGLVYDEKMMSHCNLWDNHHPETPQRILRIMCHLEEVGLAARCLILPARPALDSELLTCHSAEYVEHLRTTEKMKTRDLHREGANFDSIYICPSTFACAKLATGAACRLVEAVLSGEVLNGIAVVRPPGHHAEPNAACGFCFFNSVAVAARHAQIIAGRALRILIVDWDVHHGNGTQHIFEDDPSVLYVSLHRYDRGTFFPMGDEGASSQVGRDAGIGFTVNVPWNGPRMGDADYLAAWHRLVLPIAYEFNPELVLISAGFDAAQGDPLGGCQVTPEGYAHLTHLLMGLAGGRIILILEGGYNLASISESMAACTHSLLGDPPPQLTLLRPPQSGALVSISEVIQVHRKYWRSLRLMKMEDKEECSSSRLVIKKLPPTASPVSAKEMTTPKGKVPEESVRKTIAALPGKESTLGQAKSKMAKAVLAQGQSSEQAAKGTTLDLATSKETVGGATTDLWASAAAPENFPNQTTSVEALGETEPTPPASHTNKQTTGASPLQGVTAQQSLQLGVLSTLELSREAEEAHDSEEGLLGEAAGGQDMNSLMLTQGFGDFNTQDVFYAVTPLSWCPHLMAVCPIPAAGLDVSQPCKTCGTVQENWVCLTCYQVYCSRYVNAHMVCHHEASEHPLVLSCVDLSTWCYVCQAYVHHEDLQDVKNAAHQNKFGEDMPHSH

[3] = Metal chelating activity assessed as Fe2+ -ferrozoine complex formation at 10 to 200 uM preincubated for 2 mins followed by ferrozine addition and further incubated for 10 mins by microplate reader based assay; settings: dose 10-200 µM, time 12.0 min
N9 = experiment: Immunomodulatory activity in mouse N9 microglial cells assessed as reduction in LPS-induced iNOS expression incubated for 24 hrs by Western blot analysis; assay type: functional, cell-based; settings: dose 0.1-5 µM
Mus musculus [4] = experiment: Anti-alzheimer activity against amyloid beta (25 to 35) induced working memory deficit in mouse assessed as increase in spontaneous alternation performance at 0.3 mg/kg, ip administered for 7 days and measured on day 8 by Y-maze test; assay type: functional, organism-based; settings: time 8.0 day
Mus musculus [5] = experiment: Cognitive enhancing effect in mouse model of Alzheimer's disease at 1 mg/kg; assay type: functional, organism-based
Mus musculus [6] = experiment: Neuroprotection against mouse model of Alzheimer's disease at 1 mg/kg; assay type: functional, organism-based

Histone deacetylase 9, sequence (Q9UKV0 whole entry): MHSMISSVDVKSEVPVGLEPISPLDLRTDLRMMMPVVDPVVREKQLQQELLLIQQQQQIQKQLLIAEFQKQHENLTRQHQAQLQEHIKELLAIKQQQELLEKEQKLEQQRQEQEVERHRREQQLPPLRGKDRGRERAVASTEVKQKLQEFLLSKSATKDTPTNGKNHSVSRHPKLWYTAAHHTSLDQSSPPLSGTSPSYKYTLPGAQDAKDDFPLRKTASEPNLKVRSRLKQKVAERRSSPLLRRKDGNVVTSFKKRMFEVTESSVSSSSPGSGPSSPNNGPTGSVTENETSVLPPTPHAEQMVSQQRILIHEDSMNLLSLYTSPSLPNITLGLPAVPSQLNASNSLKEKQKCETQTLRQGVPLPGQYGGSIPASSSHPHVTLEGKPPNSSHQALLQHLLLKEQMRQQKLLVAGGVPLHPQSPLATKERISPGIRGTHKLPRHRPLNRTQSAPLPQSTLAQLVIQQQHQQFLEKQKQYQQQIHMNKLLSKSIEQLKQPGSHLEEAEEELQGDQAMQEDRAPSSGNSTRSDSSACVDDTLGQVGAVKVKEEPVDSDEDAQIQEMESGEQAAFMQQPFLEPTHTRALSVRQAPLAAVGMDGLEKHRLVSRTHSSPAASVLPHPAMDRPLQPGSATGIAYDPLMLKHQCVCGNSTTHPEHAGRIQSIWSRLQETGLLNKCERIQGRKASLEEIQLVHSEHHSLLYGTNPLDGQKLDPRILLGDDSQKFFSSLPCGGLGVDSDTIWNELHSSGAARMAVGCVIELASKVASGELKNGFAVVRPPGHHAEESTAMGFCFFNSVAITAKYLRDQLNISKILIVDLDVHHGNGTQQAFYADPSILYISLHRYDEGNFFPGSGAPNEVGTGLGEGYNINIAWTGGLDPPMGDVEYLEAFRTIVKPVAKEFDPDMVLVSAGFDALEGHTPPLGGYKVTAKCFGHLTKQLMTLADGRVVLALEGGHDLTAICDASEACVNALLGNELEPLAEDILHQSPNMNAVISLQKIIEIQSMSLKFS
Histone deacetylase 1, sequence (Q13547 whole entry): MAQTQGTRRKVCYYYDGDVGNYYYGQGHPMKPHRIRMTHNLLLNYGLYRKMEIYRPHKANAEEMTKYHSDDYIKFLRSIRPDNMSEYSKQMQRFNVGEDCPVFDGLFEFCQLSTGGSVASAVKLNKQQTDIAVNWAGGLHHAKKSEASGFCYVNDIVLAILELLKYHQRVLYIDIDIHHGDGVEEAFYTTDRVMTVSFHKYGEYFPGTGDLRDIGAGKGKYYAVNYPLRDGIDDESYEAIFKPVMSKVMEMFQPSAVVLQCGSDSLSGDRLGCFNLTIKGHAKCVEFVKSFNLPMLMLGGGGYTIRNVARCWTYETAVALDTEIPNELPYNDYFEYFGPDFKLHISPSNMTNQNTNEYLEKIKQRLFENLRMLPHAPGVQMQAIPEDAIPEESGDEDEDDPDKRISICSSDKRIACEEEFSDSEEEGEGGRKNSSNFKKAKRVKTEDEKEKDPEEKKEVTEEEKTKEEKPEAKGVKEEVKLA

Row | IC50 [1] [nM] | IC50 (Histone deacetylase 1) [nM] | IC50 (Histone deacetylase 9) [nM] | Ratio IC50 (Homo sapiens) | inhibition [2] | Activity [3] | Compound | Activity (N9) | Activity (Mus musculus [4]) | Activity (Mus musculus [5]) | Activity (Mus musculus [6])
1 | 30.7 | 771 | > 10000 | > 326 | Active | Active | COc1ccc2[nH]cc(CCN(Cc3ccc(C(=O)NO)cc3)C(=O)/C=C/c3ccc(O)c(OC)c3)c2c1 | Dose-Dependent Effect | Active | Active | Active
2 | 11.2 | 262 | 362 | 306 | – | Active | COc1ccc2c(c1)c(CCNC(C)=O)cn2Cc1ccc(C(=O)NO)cc1 | – | – | – | –
